# Measurements taken from PubChem BioAssay (NCI).
#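 Following 48 hours of exposure in 96-well plates, responses at five concentrations were used to interpolate endpoints linearly. Abbreviation: GI50, concentration required for 50% inhibition of growth. TGI is the concentration that stops growth completely.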
# Columns and labels:
# Experiment in all cases: NCI anticancer screen, dose series, 48 h
# [1] = system: MOLT-4 leukemia
# [2] = system: HCT-116 colon
# [3] = system: KM12 colon
# [4] = system: TK-10 renal
# [5] = system: SK-OV-3 ovarian
# [6] = system: SR leukemia
# [7] = system: SF-268 CNS
# [8] = system: M14 melanoma
# [9] = system: MDA-N
# [10] = system: HT29 colon
# [11] = system: HOP-92 NSCLC
# [12] = system: A498 renal
# [13] = system: NCI-H226 lung
# [14] = system: HOP-62 NSCLC
# [15] = system: SK-MEL-28 melanoma
# [16] = system: OVCAR-8 ovarian
# [17] = system: LOX IMVI melanoma
# [18] = system: RPMI-8226 leukemia
# [19] = system: K-562 leukemia
# [20] = system: A549 NSCLC
# [21] = system: DU-145 prostate
# [22] = system: MALME-3M melanoma
# [23] = system: UACC-62 melanoma
# [24] = system: IGROV1 ovarian
# [25] = system: HS 578T breast
# [26] = system: SN12C renal
# [27] = system: U251 CNS
# [28] = system: EKVX NSCLC
# [29] = system: NCI-H23 lung
# [30] = system: SK-MEL-2 melanoma
# [31] = system: SF-295 CNS
# [32] = system: MDA-MB-435
# [33] = system: 786-0 renal
# [34] = system: NCI-H522 lung
# [35] = system: MCF7 breast
# [36] = system: SW-620 colon
# [37] = system: SNB-75 CNS
# [38] = system: OVCAR-3 ovarian
# [39] = system: HCT-15 colon
# [40] = system: ACHN renal
# [41] = system: COLO 205 colon
# [42] = system: OVCAR-5 ovarian
# [43] = system: UO-31 renal
# [44] = system: SNB-19 CNS
# [45] = system: SK-MEL-5 melanoma
# [46] = system: MDA-MB-231 breast
# [47] = system: PC-3 prostate
# [48] = system: NCI-H460 lung
# [49] = system: CCRF-CEM leukemia
# [50] = system: HL-60(TB) leukemia
# [51] = system: CAKI-1 renal
# [52] = system: SF-539 CNS
# [53] = system: NCI/ADR-RES ovarian
# [54] = system: HCC-2998 colon
# [55] = system: T-47D breast
# [56] = system: OVCAR-4 ovarian
# [57] = system: RXF 393 renal
# [58] = system: UACC-257 melanoma
# [59] = system: BT-549 breast
compound,measurement,setting,value
CN(C)c1ccc(C=C2C(=O)N(c3ccccc3)N(c3ccccc3)C2=O)cc1,TGI,[1],> 100 µM
same,TGI,[2],> 100 µM
same,TGI,[3],> 100 µM
same,TGI,[4],> 100 µM
same,TGI,[5],> 100 µM
same,TGI,[6],> 100 µM
same,TGI,[7],> 100 µM
same,TGI,[8],> 100 µM
same,TGI,[9],> 100 µM
same,TGI,[10],> 100 µM
same,TGI,[11],65.1 µM
same,TGI,[12],> 100 µM
same,TGI,[13],> 100 µM
same,TGI,[14],> 100 µM
same,TGI,[15],> 100 µM
same,TGI,[16],> 100 µM
same,TGI,[17],> 100 µM
same,TGI,[18],> 100 µM
same,TGI,[19],> 100 µM
same,TGI,[20],> 100 µM
same,TGI,[21],> 100 µM
same,TGI,[22],> 100 µM
same,TGI,[23],> 100 µM
same,TGI,[24],> 100 µM
same,TGI,[25],> 100 µM
same,TGI,[26],> 100 µM
same,TGI,[27],> 100 µM
same,TGI,[28],> 100 µM
same,TGI,[29],> 100 µM
same,TGI,[30],> 100 µM
same,TGI,[31],> 100 µM
same,TGI,[32],> 100 µM
same,TGI,[33],> 100 µM
same,TGI,[34],> 100 µM
same,TGI,[35],> 100 µM
same,TGI,[36],> 100 µM
same,TGI,[37],> 100 µM
same,TGI,[38],> 100 µM
same,TGI,[39],> 100 µM
same,TGI,[40],> 100 µM
same,TGI,[41],> 100 µM
same,TGI,[42],> 100 µM
same,TGI,[43],> 100 µM
same,TGI,[44],> 100 µM
same,TGI,[45],> 100 µM
same,TGI,[46],> 100 µM
same,TGI,[47],> 100 µM
Nc1ccccc1.[C-]#[O+].[C-]#[O+].[C-]#[O+].[C-]#[O+].[C-]#[O+].[Cr],GI50,[1],3.26 µM
same,TGI,[1],> 10 µM
same,GI50,[2],2.9 µM
same,TGI,[2],> 10 µM
same,GI50,[48],5.64 µM
same,TGI,[48],> 10 µM
same,GI50,[3],7.97 µM
same,TGI,[3],> 10 µM
same,GI50,[4],4.83 µM
same,TGI,[4],> 10 µM
same,GI50,[5],5.66 µM
same,TGI,[5],> 10 µM
same,GI50,[6],4.64 µM
same,TGI,[6],> 10 µM
same,GI50,[7],6.56 µM
same,TGI,[7],> 10 µM
same,GI50,[8],3.44 µM
same,TGI,[8],> 10 µM
same,GI50,[9],3.53 µM
same,TGI,[9],> 10 µM
same,GI50,[10],> 10 µM
same,TGI,[10],> 10 µM
same,GI50,[49],2.93 µM
same,TGI,[49],> 10 µM
same,GI50,[12],3 µM
same,TGI,[12],8.28 µM
same,GI50,[13],> 10 µM
same,TGI,[13],> 10 µM
same,GI50,[50],1.68 µM
same,TGI,[50],6.94 µM
same,GI50,[14],4.6 µM
same,TGI,[14],> 10 µM
same,GI50,[51],2.04 µM
same,TGI,[51],8.3 µM
same,GI50,[15],4.52 µM
same,TGI,[15],> 10 µM
same,GI50,[16],4.03 µM
same,TGI,[16],> 10 µM
same,GI50,[17],3.15 µM
same,TGI,[17],8.56 µM
same,GI50,[18],3.39 µM
same,TGI,[18],> 10 µM
same,GI50,[19],2.98 µM
same,TGI,[19],> 10 µM
same,GI50,[20],5.18 µM
same,TGI,[20],> 10 µM
same,GI50,[21],> 10 µM
same,TGI,[21],> 10 µM
same,GI50,[22],4.72 µM
same,TGI,[22],> 10 µM
same,GI50,[23],2.42 µM
same,TGI,[23],9.64 µM
same,GI50,[24],5.53 µM
same,TGI,[24],> 10 µM
same,GI50,[52],3.28 µM
same,TGI,[52],> 10 µM
same,GI50,[25],3.28 µM
same,TGI,[25],> 10 µM
same,GI50,[26],3.9 µM
same,TGI,[26],> 10 µM
same,GI50,[27],9.45 µM
same,TGI,[27],> 10 µM
same,GI50,[28],9.33 µM
same,TGI,[28],> 10 µM
same,GI50,[53],2.76 µM
same,TGI,[53],9.79 µM
same,GI50,[54],6.17 µM
same,TGI,[54],> 10 µM
same,GI50,[29],3.67 µM
same,TGI,[29],> 10 µM
same,GI50,[30],3.91 µM
same,TGI,[30],> 10 µM
same,GI50,[31],> 10 µM
same,TGI,[31],> 10 µM
same,GI50,[32],3.67 µM
same,TGI,[32],> 10 µM
same,GI50,[34],2.94 µM
same,TGI,[34],> 10 µM
same,GI50,[55],2.62 µM
same,TGI,[55],> 10 µM
same,GI50,[56],6.7 µM
same,TGI,[56],> 10 µM
same,GI50,[35],2.43 µM
same,TGI,[35],> 10 µM
same,GI50,[36],> 10 µM
same,TGI,[36],> 10 µM
same,GI50,[37],4.05 µM
same,TGI,[37],> 10 µM
same,GI50,[38],3.18 µM
same,TGI,[38],> 10 µM
same,GI50,[39],4.99 µM
same,TGI,[39],> 10 µM
same,GI50,[40],4.84 µM
same,TGI,[40],> 10 µM
same,GI50,[41],3.52 µM
same,TGI,[41],> 10 µM
same,GI50,[42],> 10 µM
same,TGI,[42],> 10 µM
same,GI50,[43],1.86 µM
same,TGI,[43],9.66 µM
same,GI50,[44],6.89 µM
same,TGI,[44],> 10 µM
same,GI50,[45],1.53 µM
same,TGI,[45],3.34 µM
same,GI50,[46],5.79 µM
same,TGI,[46],> 10 µM
same,GI50,[47],5.87 µM
same,TGI,[47],> 10 µM
same,GI50,[57],3.22 µM
same,TGI,[57],> 10 µM
Cc1ccc2c(=O)c(C(=O)Nn3c(C)csc3=S)c[nH]c2n1,TGI,[1],> 100 µM
same,TGI,[2],> 100 µM
same,TGI,[48],> 100 µM
same,TGI,[3],> 100 µM
same,TGI,[4],> 100 µM
same,TGI,[7],> 100 µM
same,TGI,[8],> 100 µM
same,TGI,[9],> 100 µM
same,TGI,[10],> 100 µM
same,TGI,[49],> 100 µM
same,TGI,[12],> 100 µM
same,TGI,[13],> 100 µM
same,TGI,[50],> 100 µM
same,TGI,[14],> 100 µM
same,TGI,[51],> 100 µM
same,TGI,[15],> 100 µM
same,TGI,[16],> 100 µM
same,TGI,[17],> 100 µM
same,TGI,[18],> 100 µM
same,TGI,[19],> 100 µM
same,TGI,[20],> 100 µM
same,TGI,[21],> 100 µM
same,TGI,[22],> 100 µM
same,TGI,[23],> 100 µM
same,TGI,[24],> 100 µM
same,TGI,[25],> 100 µM
same,TGI,[26],> 100 µM
same,TGI,[27],> 100 µM
same,TGI,[28],> 100 µM
same,TGI,[58],> 100 µM
same,TGI,[53],> 100 µM
same,TGI,[29],> 100 µM
same,TGI,[30],> 100 µM
same,TGI,[59],> 100 µM
same,TGI,[31],> 100 µM
same,TGI,[32],> 100 µM
same,TGI,[33],> 100 µM
same,TGI,[34],> 100 µM
same,TGI,[55],> 100 µM
same,TGI,[56],> 100 µM
same,TGI,[35],> 100 µM
same,TGI,[36],> 100 µM
same,TGI,[38],> 100 µM
same,TGI,[39],> 100 µM
same,TGI,[40],> 100 µM
same,TGI,[41],> 100 µM
same,TGI,[42],> 100 µM
same,TGI,[43],> 100 µM
same,TGI,[44],> 100 µM
same,TGI,[45],> 100 µM
same,TGI,[46],> 100 µM
same,TGI,[47],> 100 µM
same,TGI,[57],> 100 µM
